Test results taken from ChEMBL document CHEMBL4145540 (Eur J Med Chem, 2018).
pIC50: −log10 of the molar value. Active and inactive are the calls of the source. The rule behind the calls is not given here.

Assays:
HT-29 = test: Antiproliferative activity against human HT-29 cells after 2 days by MTT assay; type: functional, cell-based; settings: HT-29, 48 h
MCF7 = test: Antiproliferative activity against human MCF7 cells after 2 days by MTT assay; type: functional, cell-based; settings: MCF7, 48 h
HeLa = test: Antiproliferative activity against human HeLa cells after 2 days by MTT assay; type: functional, cell-based; settings: 48 h
A549 [1] = test: Antiproliferative activity against human A549 cells after 2 days by MTT assay; type: functional, cell-based; settings: A549, 48 h
HL-60 = test: Antiproliferative activity against human HL60 cells after 2 days by MTT assay; type: functional, cell-based; settings: HL-60, 48 h
HMEC-1 = test: Antiproliferative activity against HMEC1 cells after 2 days by MTT assay; type: functional, cell-based; settings: Homo sapiens, HMEC-1, 48 h
HEK293 = test: Antiproliferative activity against HEK293 cells after 2 days by MTT assay; type: cell-based; settings: Homo sapiens, HEK293, 48 h
MDA-MB-231 = test: Antiproliferative activity against human MDA-MB-231 cells after 3 days by coulter counting method; type: functional, cell-based; settings: MDA-MB-231, 72 h
A549 [2] = test: Cell cycle arrest in human A549 cells assessed as accumulation at sub-G0 phase at 650 nM after 20 hrs by propidium iodide staining based flow cytometry (reference value: 6.6 +/- 0.1%); type: functional
A549 [3] = test: Cell cycle arrest in human A549 cells assessed as accumulation at G0/G1 phase at 650 nM after 20 hrs by propidium iodide staining based flow cytometry (reference value: 66 +/- 1%); type: functional
A549 [4] = test: Cell cycle arrest in human A549 cells assessed as accumulation at S phase at 650 nM after 20 hrs by propidium iodide staining based flow cytometry (reference value: 16 +/- 1%); type: functional
A549 [5] = test: Cell cycle arrest in human A549 cells assessed as accumulation at G2/M phase at 650 nM after 20 hrs by propidium iodide staining based flow cytometry (reference value: 11 +/- 1%); type: functional
A549 [6] = test: Cell cycle arrest in human A549 cells assessed as accumulation at sub-G0 phase at 450 nM after 20 hrs by propidium iodide staining based flow cytometry (reference value: 6.6 +/- 0.1%); type: functional
A549 [7] = test: Cell cycle arrest in human A549 cells assessed as accumulation at G0/G1 phase at 450 nM after 20 hrs by propidium iodide staining based flow cytometry (reference value: 66 +/- 1%); type: functional
A549 [8] = test: Cell cycle arrest in human A549 cells assessed as accumulation at S phase at 450 nM after 20 hrs by propidium iodide staining based flow cytometry (reference value: 16 +/- 1%); type: functional
A549 [9] = test: Cell cycle arrest in human A549 cells assessed as accumulation at G2/M phase at 450 nM after 20 hrs by propidium iodide staining based flow cytometry (reference value: 11 +/- 1%); type: functional
Bos taurus = species: Bos taurus; test: Inhibition of calf brain tubulin polymerization after 60 mins by turbidimetric method
A549 [10] = test: Cell cycle arrest in human A549 cells assessed as accumulation at sub-G0 phase at 45 nM after 20 hrs by propidium iodide staining based flow cytometry (reference value: 6.6 +/- 0.1%); type: functional
A549 [11] = test: Cell cycle arrest in human A549 cells assessed as accumulation at G0/G1 phase at 45 nM after 20 hrs by propidium iodide staining based flow cytometry (reference value: 66 +/- 1%); type: functional
A549 [12] = test: Cell cycle arrest in human A549 cells assessed as accumulation at S phase at 45 nM after 20 hrs by propidium iodide staining based flow cytometry (reference value: 16 +/- 1%); type: functional
A549 [13] = test: Cell cycle arrest in human A549 cells assessed as accumulation at G2/M phase at 45 nM after 20 hrs by propidium iodide staining based flow cytometry (reference value: 11 +/- 1%); type: functional
A549 [14] = test: Induction of apoptosis in human A549 cells at 100 nM after 24 hrs by Annexin V-FITC/propidium iodide staining based flow cytometry (reference value: 28%); type: functional
A549 [15] = test: Induction of apoptosis in human A549 cells at 10 nM after 24 hrs by Annexin V-FITC/propidium iodide staining based flow cytometry (reference value: 28%); type: functional
A549 [16] = test: Induction of apoptosis in human A549 cells after 24 hrs by Annexin V-FITC/propidium iodide staining based flow cytometry; type: functional, cell-based
[17] = Selectivity index, ratio of IC50 for antiproliferative activity against HEK293 cells to IC50 for antiproliferative activity against human MCF7 cells; type: toxicity, cell-based; settings: HEK293 cells versus MCF7 cells, read-out: Ratio IC50
[18] = Selectivity index, ratio of IC50 for antiproliferative activity against HEK293 cells to IC50 for antiproliferative activity against human HT-29 cells; type: toxicity, cell-based; settings: HEK293 cells versus HT-29 cells, read-out: Ratio IC50
[19] = Selectivity index, ratio of IC50 for antiproliferative activity against HEK293 cells to IC50 for antiproliferative activity against human HeLa cells; type: toxicity, cell-based; settings: HEK293 cells versus HeLa cells, read-out: Ratio IC50
[20] = Selectivity index, ratio of IC50 for antiproliferative activity against HEK293 cells to IC50 for antiproliferative activity against human HL60 cells; type: toxicity, cell-based; settings: HEK293 cells versus HL60 cells, read-out: Ratio IC50
A549 [21] = test: Cell cycle arrest in human A549 cells assessed as accumulation at sub-G0 phase at 135 nM after 20 hrs by propidium iodide staining based flow cytometry (reference value: 6.6 +/- 0.1%); type: functional
A549 [22] = test: Cell cycle arrest in human A549 cells assessed as accumulation at G0/G1 phase at 135 nM after 20 hrs by propidium iodide staining based flow cytometry (reference value: 66 +/- 1%); type: functional
A549 [23] = test: Cell cycle arrest in human A549 cells assessed as accumulation at S phase at 135 nM after 20 hrs by propidium iodide staining based flow cytometry (reference value: 16 +/- 1%); type: functional
A549 [24] = test: Cell cycle arrest in human A549 cells assessed as accumulation at G2/M phase at 135 nM after 20 hrs by propidium iodide staining based flow cytometry (reference value: 11 +/- 1%); type: functional
A549 [25] = test: Cell cycle arrest in human A549 cells assessed as accumulation at sub-G0 phase at 2000 nM after 20 hrs by propidium iodide staining based flow cytometry (reference value: 6.6 +/- 0.1%); type: functional
A549 [26] = test: Cell cycle arrest in human A549 cells assessed as accumulation at G0/G1 phase at 2000 nM after 20 hrs by propidium iodide staining based flow cytometry (reference value: 66 +/- 1%); type: functional
A549 [27] = test: Cell cycle arrest in human A549 cells assessed as accumulation at G2/M phase at 2000 nM after 20 hrs by propidium iodide staining based flow cytometry (reference value: 11 +/- 1%); type: functional
A549 [28] = test: Cell cycle arrest in human A549 cells assessed as accumulation at sub-G0 phase at 750 nM after 20 hrs by propidium iodide staining based flow cytometry (reference value: 6.6 +/- 0.1%); type: functional
A549 [29] = test: Cell cycle arrest in human A549 cells assessed as accumulation at G0/G1 phase at 750 nM after 20 hrs by propidium iodide staining based flow cytometry (reference value: 66 +/- 1%); type: functional
A549 [30] = test: Cell cycle arrest in human A549 cells assessed as accumulation at S phase at 750 nM after 20 hrs by propidium iodide staining based flow cytometry (reference value: 16 +/- 1%); type: functional
A549 [31] = test: Cell cycle arrest in human A549 cells assessed as accumulation at G2/M phase at 750 nM after 20 hrs by propidium iodide staining based flow cytometry (reference value: 11 +/- 1%); type: functional
A549 [32] = test: Cell cycle arrest in human A549 cells assessed as accumulation at sub-G0 phase at 70 nM after 20 hrs by propidium iodide staining based flow cytometry (reference value: 6.6 +/- 0.1%); type: functional
A549 [33] = test: Cell cycle arrest in human A549 cells assessed as accumulation at G0/G1 phase at 70 nM after 20 hrs by propidium iodide staining based flow cytometry (reference value: 66 +/- 1%); type: functional
A549 [34] = test: Cell cycle arrest in human A549 cells assessed as accumulation at S phase at 70 nM after 20 hrs by propidium iodide staining based flow cytometry (reference value: 16 +/- 1%); type: functional
A549 [35] = test: Cell cycle arrest in human A549 cells assessed as accumulation at G2/M phase at 70 nM after 20 hrs by propidium iodide staining based flow cytometry (reference value: 11 +/- 1%); type: functional
A549 [36] = test: Disruption of microtubule network in human A549 cells assessed as appearance of tubulin aggregates at 220 nM after 16 hrs by Hoechst staining based immunofluorescence assay; type: cell-based
A549 [37] = test: Disruption of microtubule network in human A549 cells assessed as appearance of compressed and fragmented nuclei at 220 nM after 16 hrs by Hoechst staining based immunofluorescence assay; type: cell-based
A549 [38] = test: Cell cycle arrest in human A549 cells assessed as accumulation at sub-G0 phase at 55 nM after 20 hrs by propidium iodide staining based flow cytometry (reference value: 6.6 +/- 0.1%); type: functional
A549 [39] = test: Cell cycle arrest in human A549 cells assessed as accumulation at G0/G1 phase at 55 nM after 20 hrs by propidium iodide staining based flow cytometry (reference value: 66 +/- 1%); type: functional
A549 [40] = test: Cell cycle arrest in human A549 cells assessed as accumulation at S phase at 55 nM after 20 hrs by propidium iodide staining based flow cytometry (reference value: 16 +/- 1%); type: functional
A549 [41] = test: Cell cycle arrest in human A549 cells assessed as accumulation at G2/M phase at 55 nM after 20 hrs by propidium iodide staining based flow cytometry (reference value: 11 +/- 1%); type: functional

Row | SMILES | pIC50 (HT-29) | pIC50 (MCF7) | pIC50 (HeLa) | pIC50 (A549 [1]) | pIC50 (HL-60) | pIC50 (HMEC-1) | pIC50 (HEK293) | pIC50 (MDA-MB-231) | other results
1 | COc1ccc(/C=C\c2cc(OC)c(OC)c(OC)c2)cc1NC(=O)Oc1ccc(C)c(C)c1 | 6.89 | 6.77 | 7.68 | 5.89 | 7.16 | 6.89 | 7.01 | 7.39 | Activity (A549 [2]): 17%; Activity (A549 [3]): 24%; Activity (A549 [4]): 19%; Activity (A549 [5]): 41%
2 | COc1ccc(/C=C\c2cc(OC)c(OC)c(OC)c2)cc1NC(=O)Oc1cccc(C)c1C | 6.76 | 7.80 | 7.40 | 6.05 | 7.23 | 6.85 | 7.10 | 7.18 | Activity (A549 [6]): 12%; Activity (A549 [7]): 24%; Activity (A549 [8]): 22%; Activity (A549 [9]): 42%
3 | COc1ccc(/C=C\c2cc(OC)c(OC)c(OC)c2)cc1NC(=O)Oc1ccc(C)c(Cl)c1 | 7.64 | 8.21 | 8.43 | 7.05 | 8.74 | 8.22 | 8.15 | 7.86 | inhibition (Bos taurus): Active; Activity (A549 [10]): 29%; Activity (A549 [11]): 21%; Activity (A549 [12]): 14%; Activity (A549 [13]): 36%; Activity (A549 [14]): 46%; Activity (A549 [15]): 23%; Activity (A549 [16]): Dose-dependent effect
4 | COc1ccc(/C=C\c2cc(OC)c(OC)c(OC)c2)cc1NC(=O)Oc1ccc(C(F)(F)F)cc1 | 7.56 | 8.04 | 7.68 | 6.57 | 7.40 | 7.52 | 7.24 | 7.67 | selectivity ratio [17]: 2 to 11; selectivity ratio [18]: 2 to 11; selectivity ratio [19]: 2 to 11; selectivity ratio [20]: 2 to 11; Activity (A549 [21]): 26%; Activity (A549 [22]): 22%; Activity (A549 [23]): 14%; Activity (A549 [24]): 39%
5 | COc1ccc(/C=C\c2cc(OC)c(OC)c(OC)c2)cc1NC(=O)Oc1c(C)cccc1C | 6.22 | 6.36 | 6.49 | 5.41 | 6.33 | 6.42 | 6.31 | 7.12 | Activity (A549 [25]): 23%; Activity (A549 [26]): 25%; Activity (A549 [27]): 35%
6 | COc1ccc(/C=C\c2cc(OC)c(OC)c(OC)c2)cc1NC(=O)Oc1ccc(C)cc1 | 6.57 | 6.70 | 6.43 | 5.82 | 7.28 | 6.80 | 6.84 | 7.85 | Activity (A549 [28]): 27%; Activity (A549 [29]): 24%; Activity (A549 [30]): 16%; Activity (A549 [31]): 32%
7 | COc1ccc(/C=C\c2cc(OC)c(OC)c(OC)c2)cc1NC(=O)Oc1cccc(Cl)c1C | 7.33 | 7.41 | 7.64 | 6.85 | 7.15 | 7.70 | 7.85 | 7.85 | Activity (A549 [32]): 20%; Activity (A549 [33]): 24%; Activity (A549 [34]): 18%; Activity (A549 [35]): 39%
8 | COc1ccc(/C=C\c2cc(OC)c(OC)c(OC)c2)cc1NC(=O)Oc1ccccc1C(F)(F)F | 7.80 | 7.36 | 7.82 | 6.96 | 8.17 | 7.72 | 8.39 | 7.86 | Activity (A549 [36]): Active; Activity (A549 [37]): Active; Activity (A549 [38]): 20%; Activity (A549 [39]): 21%; Activity (A549 [40]): 15%; Activity (A549 [41]): 44%
